Results taken from US10468120B2, “Method of generating a hyperpigmentation condition gene expression signature” (The Procter & Gamble Company, priority 2012, dated 2019).

What was measured:
[1] = system: tert-Keratinocyte (tKC) cells; test: C-map query with the tone composite benchmark signature (Niacinamide, Hexamidine, Sepiwhite, NAG); assay type: cell-based, human; conditions: composite signature of Example 3
Method: Individual experiments (referred to as batches) generally comprise 30 to 96 samples analyzed using Affymetrix GeneChip® technology platforms, containing 6 replicates of the vehicle control (e.g., DSMO), 2 replicate samples of a positive control that gives a strong reproducible effect in the cell type used, and samples of the test material/perturbagen. Replication of the test material is done in separate batches due to batch effects. In vitro testing was performed in 6-well plates to provide sufficient RNA for GeneChip® analysis (2-4 μg total RNA yield/well).
Human telomerized keratinocytes (tKC) were obtained from the University of Texas, Southwestern Medical Center, Dallas, Tex. tKC cells were grown in EpiLife® media with 1× Human Keratinocyte Growth Supplement (Invitrogen, Carlsbad, Calif.) on collagen I coated cell culture flasks and plates (Becton Dickinson, Franklin Lakes, N.J.). Keratinocytes were seeded into 6-well plates at 20,000 cells/cm^2 24 hours before chemical exposure. Human skin fibroblasts (BJ cell line from ATCC, Manassas, Va.) were grown in Eagle's Minimal Essential Medium (ATCC) supplemented with 10% fetal bovine serum (HyClone, Logan, Utah) in normal cell culture flasks and plates (Corning, Lowell, Mass.). BJ fibroblasts were seeded into 6-well plates at 12,000 cells/cm^2 24 hours before chemical exposure. […]

[2] = system: Chinese females, 25-55 years old with hyperpigmented spots; test: 9-week randomized, double-blind, vehicle-controlled, split-face tone benefit study; assay type: in vivo, human; conditions: 0.05% in SC-99 vehicle, 2x a day, vs vehicle
Description: This Example provides evidence of the advantages of using composite signatures and illustrates clinical affirmation of the C-map model for predicting efficacy of skin-lightening agents. This Example supports embodiments related to composite signatures (as described at the end of Example 3). An illustrative “Skin Tone” Signature developed from a genomics study using a composite skin-lightening benchmark agent signature is derived from Niacinamide, Hexamidine, Sepiwhite, and NAG. The signature is used to query C-map and generate a list of potential skin-lightening agents. A top hit, Chlorhexidine Diactate (CD) is entered into clinical testing for confirmation of efficacy. The control for clinical efficacy is a 5% Niacinamide+1% Sepiwhite formulation in the control vehicle.
Primary endpoints are changes in color spot area fraction (image analysis) and melanin spot area fraction (NC2) from baseline. Secondary endpoints are changes from baseline in L*a*b (color image analysis), mean melanin gray scale (NC2), and melanin evenness (NC2). Texture area fraction and pore area fraction are also evaluated to explore impact on other aspects relating to overall skin tone. […] Statistically significant superiority to the high efficacy benchmark skin active agent to vehicle performance is the clinical success criteria.
Study Design: The experimental protocol included a 9-week (1-week preconditioning & 8-week treatment), randomized, double-blind, round robin, vehicle-controlled, split-face tone benefit study. The subject population included 330 Chinese females, 25-55 years old with hyperpigmented spots. 318 subjects completed the entire study. […] Olay Complete SPF 15 UV Moisturizing Lotion is concomitantly used during pre-conditioning and treatment. 0.5 g each test product per half-face (forehead to jaw line; ˜4 mg/cm^2) is dosed 2× a day (morning/evening). Color SAF and treatment area, Melanin SAF, gray scale, evenness by NC2, and additional measurement of Fine Lines and Wrinkle and Texture are by REAL 3.01A. Data collection points include baseline, and ends of weeks 4, 6 and 8. The tested hypothesis is that there is no difference in clinical endpoint versus the benchmark composition treatment. Study site is Kuntai Clinical Center, Beijing, China and study time frame is February 2010 (pre-conditioning) to April 2010.

## CC(=O)O.CC(=O)O.NC(=N\CCCCCC/N=C(N)/N=C(\N)Nc1ccc(Cl)cc1)/N=C(\N)Nc1ccc(Cl)cc1 [CD, Chlorhexidine Diacetate]
[1]
  connectivity to the tone composite benchmark signature query: top connectivity hit
[2]; week 8
  Basal skin tone: demonstrated superiority
  Pore area fraction: superior efficacy
  Texture area fraction: superior efficacy
[2]; weeks 6 and 8
  NC2 Melanin evenness test: superiority to the vehicle
  spot area fraction NC2 test: significantly reduced fraction when compared to the vehicle
